In PubChem BioAssay (NCI):
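Dose response: 5 concentrations. Exposure: 48 h. Format: 96-well plates. Endpoint: linear interpolation; highest concentration if not reached. GI50: concentration for 50% inhibition of growth. TGI: concentration producing complete growth inhibition.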

Key:
Experiment in all cases: NCI-60 cell line screen, 48 h
EKVX NSCLC = system: EKVX NSCLC
HS 578T breast = system: HS 578T breast
HT29 colon = system: HT29 colon
LOX IMVI melanoma = system: LOX IMVI melanoma
OVCAR-8 ovarian = system: OVCAR-8 ovarian
SK-OV-3 ovarian = system: SK-OV-3 ovarian
SNB-75 CNS = system: SNB-75 CNS
SR leukemia = system: SR leukemia
UACC-62 melanoma = system: UACC-62 melanoma
MCF7 breast = system: MCF7 breast

SMILES | GI50 (EKVX NSCLC) [µM] | TGI (EKVX NSCLC) [µM] | GI50 (HS 578T breast) [µM] | TGI (HS 578T breast) [µM] | GI50 (HT29 colon) [µM] | TGI (HT29 colon) [µM] | GI50 (LOX IMVI melanoma) [µM] | TGI (LOX IMVI melanoma) [µM] | GI50 (OVCAR-8 ovarian) [µM] | TGI (OVCAR-8 ovarian) [µM] | GI50 (SK-OV-3 ovarian) [µM] | TGI (SK-OV-3 ovarian) [µM] | GI50 (SNB-75 CNS) [µM] | TGI (SNB-75 CNS) [µM] | GI50 (SR leukemia) [µM] | TGI (SR leukemia) [µM] | GI50 (UACC-62 melanoma) [µM] | TGI (UACC-62 melanoma) [µM] | GI50 (MCF7 breast) [µM] | TGI (MCF7 breast) [µM]
O=C(O)c1ccc([S-])cc1.[Au+].c1ccc(CN2[CH-]N(Cc3ccccc3)C(c3ccccc3)=C2c2ccccc2)cc1 | 0.274 | 1.53 | 0.459 | 2.84 | 0.434 | 1.58 | 0.311 | 1.37 | 0.417 | 1.66 | 0.352 | 1.39 | 0.298 | 1.51 | 0.429 | 2.76 | 0.319 | 1.4 | – | –
COc1ccc(SC2c3ccc(C)cc3Oc3nc(N)c(C#N)c(N)c32)cc1 (stereo not drawn) | 1.73 | 3.2 | 2.27 | 5.54 | 2.31 | 4.83 | 1.6 | 3.11 | 1.64 | 3.06 | 1.78 | 3.17 | 1.46 | 3.21 | – | – | 1.6 | 2.99 | 1.95 | 4.72
Cn1c(/C=C(\C#N)c2cccc(C(F)(F)F)c2)nc2c(N3CCOCC3)nc(Cl)nc21 | 1.21 | 2.73 | 1.26 | 4.38 | 0.369 | 1.38 | 0.321 | 1.36 | 0.567 | 2.16 | 3.7 | 14.5 | 0.159 | 1.15 | 0.337 | 1.86 | 0.973 | 2.28 | – | –
COc1ccc2c3c(c4ccccc4cc13)C(=O)N(CCN(C)CCN)C2=O | 0.538 | 2.06 | 1.19 | 3.67 | 0.114 | 1.13 | 0.0446 | 0.381 | 0.107 | 1.61 | 0.0692 | 0.806 | 0.166 | 1.37 | – | – | 0.077 | 1.56 | 0.0133 | 1.1
COc1ccc2nc(NCN3C(=O)c4ccccc4C3=O)sc2c1 | – | > 100 | – | > 100 | – | > 100 | – | > 100 | – | > 100 | – | > 100 | – | > 100 | – | – | – | > 100 | – | > 100
CSc1nc(SC)c2c(C(N)=S)[nH]nc2n1 | – | 56 | – | – | – | > 100 | – | 62.7 | – | > 100 | – | 70.5 | – | 76.5 | – | 87.1 | – | 55.6 | – | –
COC(=O)c1ccc(NC(=O)c2cc(OC)c(OC)c(OC)c2)cc1 | – | > 100 | – | – | – | > 100 | – | > 100 | – | > 100 | – | 98.4 | – | > 100 | – | > 72.8 | – | > 100 | – | –
COc1cc(C=O)c(-c2cc3c(cc2C2(C)OCCS2)OCO3)c(OC)c1OC (stereo not drawn) | – | > 97 | – | – | – | 20.7 | – | 37.7 | – | > 75.1 | – | > 239 | – | 21.3 | – | 50 | – | 61.4 | – | –
O=C(NC12CC3CC(CC(C3)C1)C2)C(=O)c1c[nH]c2ccc([N+](=O)[O-])cc12 | – | > 100 | – | – | – | > 100 | – | > 52 | – | > 100 | – | > 100 | – | 52.8 | – | > 100 | – | > 77.1 | – | –
N#Cc1ccc(Nc2cnc3ccc(N)cc3n2)cc1 | – | > 100 | – | – | – | > 100 | – | > 100 | – | > 100 | – | > 100 | – | > 100 | – | > 100 | – | > 100 | – | –
C[C@]1(C(=O)O)N[C@H](C(=O)O)CS1 | – | – | – | – | > 1000 | > 1000 | > 1000 | > 1000 | > 1000 | > 1000 | > 1000 | > 1000 | > 1000 | > 1000 | – | – | > 1000 | > 1000 | > 1000 | > 1000
NC(CC(=O)Nc1ccc(Cl)cc1)=Nc1ccccc1 | – | > 100 | – | – | – | > 100 | – | > 100 | – | > 100 | – | > 100 | – | > 100 | – | > 100 | – | > 100 | – | –
COC(=O)[C@@]1(O)CC(C)C=C1C=O (stereo partly drawn) | – | > 100 | – | – | – | > 100 | – | > 100 | – | > 100 | – | > 100 | – | > 100 | – | > 100 | – | > 100 | – | –
Nc1nc(NC2C=C(CO)C(O)C2O)c([N+](=O)[O-])c(=O)[nH]1 (stereo not drawn) | – | > 100 | – | – | – | > 100 | – | > 100 | – | > 100 | – | > 100 | – | > 100 | – | > 100 | – | > 100 | – | –
Cc1ccc(C(=O)/C(=C\c2ccc([N+](=O)[O-])cc2)S(=O)Cc2ccc(F)cc2)cc1 (stereo not drawn) | 1.78 | 3.8 | 2.87 | 8.76 | – | – | 1.46 | 2.95 | 1.88 | 4.08 | 10.8 | 23.2 | 1.47 | 3.1 | 0.703 | 12.6 | 1.53 | 2.97 | – | –
O=C(O)C1C(=O)Oc2c(cccc2[N+](=O)[O-])C1O (stereo not drawn) | – | > 100 | – | > 100 | – | > 100 | – | > 100 | – | > 100 | – | – | – | > 100 | – | > 100 | – | > 100 | – | –
